Test results taken from US10123993B2, “Cyclic ureas as inhibitors of rock” (BRISTOL-MYERS SQUIBB COMPANY, priority 2015, dated 2018).

Molecular target: ROCK2 (Homo sapiens, UniProt O75116)
Experiment: ROCK2 kinase inhibition assay (Caliper LABCHIP, FITC peptide substrate)
Format: biochemical
Settings: 5 μM ATP, 1.5 μM peptide substrate; value ranges
Description: The effectiveness of compounds of the present invention as ROCK inhibitors can be determined in a 30 μL assay containing 20 mM HEPES, pH 7.5, 20 mM MgCl2, 0.015% Brij-35, 4 mM DTT, 5 μM ATP and 1.5 μM peptide substrate (FITC-AHA-AKRRRLSSLRA-OH). Compounds were dissolved in DMSO so that the final concentration of DMSO was <2%, and the reaction was initiated with Rho kinase variants. After incubation, the reaction was terminated by the addition of EDTA and the phosphorylated and non-phosphorylated peptides separated using a LABCHIP® 3000 Reader (Caliper Life Sciences). […] Compounds were tested in dose-response format, and the inhibition of kinase activity was calculated at each concentration of compound. The inhibition data were fit using a curve-fitting program to determine the IC50; i.e., the concentration of compound required to inhibit 50% of kinase activity.
Representative Examples were tested in the ROCK2 assay described above and found having ROCK inhibitory activity.

ROCK2, sequence (O75116 whole entry, species assumed): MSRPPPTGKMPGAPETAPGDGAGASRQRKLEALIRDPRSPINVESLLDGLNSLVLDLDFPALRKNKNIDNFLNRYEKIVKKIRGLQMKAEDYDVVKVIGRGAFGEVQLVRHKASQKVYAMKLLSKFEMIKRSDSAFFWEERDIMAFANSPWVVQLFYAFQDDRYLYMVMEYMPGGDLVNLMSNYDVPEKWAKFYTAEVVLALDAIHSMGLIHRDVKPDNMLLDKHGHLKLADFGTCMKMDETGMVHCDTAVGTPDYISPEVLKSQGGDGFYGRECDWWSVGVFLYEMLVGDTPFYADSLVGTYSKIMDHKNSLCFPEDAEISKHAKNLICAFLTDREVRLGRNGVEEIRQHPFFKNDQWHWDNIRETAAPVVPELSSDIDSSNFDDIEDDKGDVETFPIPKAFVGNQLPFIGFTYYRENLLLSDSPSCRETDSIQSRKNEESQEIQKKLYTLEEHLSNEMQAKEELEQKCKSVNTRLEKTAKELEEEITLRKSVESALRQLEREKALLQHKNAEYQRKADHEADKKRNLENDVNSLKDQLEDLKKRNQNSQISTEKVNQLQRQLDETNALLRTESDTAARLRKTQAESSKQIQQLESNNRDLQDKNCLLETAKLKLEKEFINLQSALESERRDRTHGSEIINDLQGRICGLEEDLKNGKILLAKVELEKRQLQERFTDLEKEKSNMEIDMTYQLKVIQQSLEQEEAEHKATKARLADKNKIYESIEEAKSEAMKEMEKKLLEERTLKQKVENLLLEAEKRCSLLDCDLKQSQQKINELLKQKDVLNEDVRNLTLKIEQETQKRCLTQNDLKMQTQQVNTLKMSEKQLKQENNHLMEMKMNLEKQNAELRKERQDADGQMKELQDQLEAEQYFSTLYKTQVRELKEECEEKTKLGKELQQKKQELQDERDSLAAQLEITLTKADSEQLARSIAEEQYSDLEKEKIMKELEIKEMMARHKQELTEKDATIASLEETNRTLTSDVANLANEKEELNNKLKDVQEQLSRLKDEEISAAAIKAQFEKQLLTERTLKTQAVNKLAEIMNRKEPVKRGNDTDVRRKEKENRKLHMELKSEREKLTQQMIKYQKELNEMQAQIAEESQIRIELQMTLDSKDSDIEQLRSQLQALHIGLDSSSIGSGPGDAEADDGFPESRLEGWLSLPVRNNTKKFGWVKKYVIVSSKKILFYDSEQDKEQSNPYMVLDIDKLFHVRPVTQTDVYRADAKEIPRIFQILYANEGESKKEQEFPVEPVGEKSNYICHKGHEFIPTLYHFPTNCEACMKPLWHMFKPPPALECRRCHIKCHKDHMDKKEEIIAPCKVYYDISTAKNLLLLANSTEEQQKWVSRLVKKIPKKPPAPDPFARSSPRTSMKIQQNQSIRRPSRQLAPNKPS

IC50 [µM]	Structure (SMILES)
0.0021 to 0.02	CCc1nc(N2CCN(C(C)c3ccc(F)c(OC)c3)C2=O)ccc1-c1cn[nH]c1 (single isomer, unassigned) [Example 270, 1-(6-ethyl-5-(1H-pyrazol-4-yl)pyridin-2-yl)-3-(1-(4-fluoro-3-methoxyphenyl)ethyl)imidazolidin-2-one]
0.0201 to 0.2	COc1cccc(C(C)(CO)N2CCN(c3ccc(-c4cn[nH]c4)cc3)C2=O)c1 (single isomer, unassigned) [Example 286, 1-(4-(1H-Pyrazol-4-yl)phenyl)-3-(1-hydroxy-2-(3-methoxyphenyl)propan-2-yl)imidazolidin-2-one]
0.0021 to 0.02	CCNC(=O)C(c1cccc(OC)c1)N1CCN(c2ccc(-c3cn[nH]c3)cc2)C1=O (single isomer, unassigned) [Example 289, 2-(3-(4-(1H-Pyrazol-4-yl)phenyl)-2-oxoimidazolidin-1-yl)-N-ethyl-2-(3-methoxyphenyl)acetamide]
0.0021 to 0.02	CNC(=O)C(c1cccc(OC)c1)N1CCN(c2ccc(-c3cn[nH]c3)cc2)C1=O (single isomer, unassigned) [Example 292, 2-(3-(4-(1H-pyrazol-4-yl)phenyl)-2-oxoimidazolidin-1-yl)-2-(3-methoxyphenyl)-N-methylacetamide]
0.0021 to 0.02	COc1cccc(C(C(=O)NCC(C)C)N2CCN(c3ccc(-c4cn[nH]c4)cc3)C2=O)c1 (single isomer, unassigned) [Example 294, 2-(3-(4-(1H-pyrazol-4-yl)phenyl)-2-oxoimidazolidin-1-yl)-N-isobutyl-2-(3-methoxyphenyl)acetamide]
0.0201 to 0.2	COc1cccc(C(C(N)=O)N2CCN(c3ccc(-c4cn[nH]c4)cc3)C2=O)c1 (single isomer, unassigned) [Example 295, 2-(3-(4-(1H-pyrazol-4-yl)phenyl)-2-oxoimidazolidin-1-yl)-2-(3-methoxyphenyl)acetamide]
0.0201 to 0.2	COc1cccc(C(C(=O)NCC2CC2)N2CCN(c3ccc(-c4cn[nH]c4)cc3)C2=O)c1 (single isomer, unassigned) [Example 296, 2-(3-(4-(1H-pyrazol-4-yl)phenyl)-2-oxoimidazolidin-1-yl)-N-(cyclopropylmethyl)-2-(3-methoxyphenyl)acetamide]
0.0201 to 0.2	COc1cccc(C(C(=O)NCC(C)(C)O)N2CCN(c3ccc(-c4cn[nH]c4)cc3)C2=O)c1 (single isomer, unassigned) [Example 303, 2-(3-(4-(1H-pyrazol-4-yl)phenyl)-2-oxoimidazolidin-1-yl)-N-(2-hydroxy-2-methylpropyl)-2-(3-methoxyphenyl)acetamide]
0.0021 to 0.02	CNCC(c1cccc(OC)c1)N1CCN(c2ccc(-c3cn[nH]c3)cc2)C1=O (single isomer, unassigned) [Example 310, 1-(4-(1H-Pyrazol-4-yl)phenyl)-3-(1-(3-methoxyphenyl)-2-(methylamino)ethyl)imidazolidin-2-one]
0.2 to 2	COc1cccc(C(C)n2ccn(-c3ccc(-c4ccnc(F)c4)cc3)c2=O)c1 (single isomer, unassigned) [Example 327, 1-(4-(2-fluoropyridin-4-yl)phenyl)-3-(1-(3-methoxyphenyl)ethyl)-1H-imidazol-2(3H)-one]
0.0201 to 0.2	COc1cccc(C(C)n2ccn(-c3ccc(-c4cn[nH]c4)cc3)c2=O)c1 (single isomer, unassigned) [Example 340, 1-(4-(1H-pyrazol-4-yl)phenyl)-3-(l-(3-methoxyphenyl)ethyl)-1H-imidazol-2(3H)-one]

Second part, the compound before the results:

Structure (SMILES)	IC50 [µM]
CCc1nc(N2CCN(C(C)c3cc(F)cc(OC)c3)C2=O)ccc1-c1cn[nH]c1 (single isomer, unassigned) [Example 268, 1-(6-ethyl-5-(1H-pyrazol-4-yl)pyridin-2-yl)-3-(1-(3-fluoro-5-methoxyphenyl)ethyl)imidazolidin-2-one]	< 0.002
CCc1nc(N2CCN(C(C)c3cc(F)cc(OC)c3)C2=O)ccc1-c1cn[nH]c1 (single isomer, unassigned) [Example 269, 1-(6-ethyl-5-(1H-pyrazol-4-yl)pyridin-2-yl)-3-(1-(3-fluoro-5-methoxyphenyl)ethyl)imidazolidin-2-one]	0.0201 to 0.2
CCc1nc(N2CCN(C(C)c3ccc(F)c(OC)c3)C2=O)ccc1-c1cn[nH]c1 (single isomer, unassigned) [Example 271, 1-(6-ethyl-5-(1H-pyrazol-4-yl)pyridin-2-yl)-3-(1-(4-fluoro-3-methoxyphenyl)ethyl)imidazolidin-2-one]	0.2 to 2
COc1cccc(C(C)(CO)N2CCN(c3ccc(-c4cn[nH]c4)cc3)C2=O)c1 (single isomer, unassigned) [Example 287, 1-(4-(1H-Pyrazol-4-yl)phenyl)-3-(1-hydroxy-2-(3-methoxyphenyl)propan-2-yl)imidazolidin-2-one]	0.0201 to 0.2
COc1cccc(C(C(=O)O)N2CCN(c3ccc(-c4cn[nH]c4)cc3)C2=O)c1 (single isomer, unassigned) [Example 288, 2-(3-(4-(1H-Pyrazol-4-yl)phenyl)-2-oxoimidazolidin-1-yl)-2-(3-methoxyphenyl)acetic Acid]	0.2 to 2
CCNC(=O)C(c1cccc(OC)c1)N1CCN(c2ccc(-c3cn[nH]c3)cc2)C1=O (single isomer, unassigned) [Example 290, 2-(3-(4-(1H-Pyrazol-4-yl)phenyl)-2-oxoimidazolidin-1-yl)-N-ethyl-2-(3-methoxyphenyl)acetamide]	0.0201 to 0.2
CNC(=O)C(c1cccc(OC)c1)N1CCN(c2ccc(-c3cn[nH]c3)cc2)C1=O (single isomer, unassigned) [Example 291, 2-(3-(4-(1H-pyrazol-4-yl)phenyl)-2-oxoimidazolidin-1-yl)-2-(3-methoxyphenyl)-N-methylacetamide]	0.0201 to 0.2
COc1cccc(C(C(=O)NCC(C)C)N2CCN(c3ccc(-c4cn[nH]c4)cc3)C2=O)c1 (single isomer, unassigned) [Example 293, 2-(3-(4-(1H-pyrazol-4-yl)phenyl)-2-oxoimidazolidin-1-yl)-N-isobutyl-2-(3-methoxyphenyl)acetamide]	0.2 to 2
COc1cccc(C(C(=O)NCC2CC2)N2CCN(c3ccc(-c4cn[nH]c4)cc3)C2=O)c1 (single isomer, unassigned) [Example 297, 2-(3-(4-(1H-pyrazol-4-yl)phenyl)-2-oxoimidazolidin-1-yl)-N-(cyclopropylmethyl)-2-(3-methoxyphenyl)acetamide]	0.2 to 2
CNC(=O)C(c1ccccc1)N1CCN(c2ccc(-c3cn[nH]c3)cc2)C1=O (single isomer, unassigned) [Example 299, 2-(3-(4-(1H-pyrazol-4-yl)phenyl)-2-oxoimidazolidin-1-yl)-N-methyl-2-phenylacetamide]	0.0201 to 0.2
COc1cccc(C(C(=O)NC2CC2)N2CCN(c3ccc(-c4cn[nH]c4)cc3)C2=O)c1 (single isomer, unassigned) [Example 300, 2-(3-(4-(1H-pyrazol-4-yl)phenyl)-2-oxoimidazolidin-1-yl)-N-cyclopropyl-2-(3-methoxyphenyl)acetamide]	0.0201 to 0.2
COc1cccc(C(C(=O)NC2CC2)N2CCN(c3ccc(-c4cn[nH]c4)cc3)C2=O)c1 (single isomer, unassigned) [Example 301, 2-(3-(4-(1H-pyrazol-4-yl)phenyl)-2-oxoimidazolidin-1-yl)-N-cyclopropyl-2-(3-methoxyphenyl)acetamide]	0.0021 to 0.02
CNC(=O)C(C)(c1cccc(OC)c1)N1CCN(c2ccc(-c3cn[nH]c3)cc2)C1=O (single isomer, unassigned) [Example 304, 2-(3-(4-(1H-Pyrazol-4-yl)phenyl)-2-oxoimidazolidin-1-yl)-2-(3-methoxyphenyl)-N-methylpropanamide]	0.2 to 2
CNCC(c1cccc(OC)c1)N1CCN(c2ccc(-c3cn[nH]c3)cc2)C1=O (single isomer, unassigned) [Example 309, 1-(4-(1H-Pyrazol-4-yl)phenyl)-3-(1-(3-methoxyphenyl)-2-(methylamino)ethyl)imidazolidin-2-one]	0.0201 to 0.2
COc1cccc(C(CO)n2ccn(-c3ccc(-c4cn[nH]c4)cc3)c2=O)c1 (single isomer, unassigned) [Example 323, 1-(4-(1H-Pyrazol-4-yl)phenyl)-3-(2-hydroxy-1-(3-methoxyphenyl)ethyl)-1H-imidazol-2(3H)-one]	0.2 to 2
COc1cccc(C(CO)n2ccn(-c3ccc(-c4cn[nH]c4)cc3)c2=O)c1 (single isomer, unassigned) [Example 324, 1-(4-(1H-Pyrazol-4-yl)phenyl)-3-(2-hydroxy-1-(3-methoxyphenyl)ethyl)-1H-imidazol-2(3H)-one]	< 0.002
COc1cccc(C(C)n2ccn(-c3ccc(-c4ccnc5[nH]ccc45)cc3)c2=O)c1 (single isomer, unassigned) [Example 325, 1-(4-(1H-Pyrrolo[2,3-b]pyridin-4-yl)phenyl)-3-(1-(3-methoxyphenyl)ethyl)-1H-imidazol-2(3H)-one]	0.0201 to 0.2
COc1cccc(C(C)n2ccn(-c3ccc(-c4ccnc5[nH]ccc45)cc3)c2=O)c1 (single isomer, unassigned) [Example 326, 1-(4-(1H-Pyrrolo[2,3-b]pyridin-4-yl)phenyl)-3-(1-(3-methoxyphenyl)ethyl)-1H-imidazol-2(3H)-one]	0.0021 to 0.02
COc1cccc(C(C)n2ccn(-c3ccc(-c4cn[nH]c4)cc3)c2=O)c1 (single isomer, unassigned) [Example 339, 1-(4-(1H-pyrazol-4-yl)phenyl)-3-(1-(3-methoxyphenyl)ethyl)-1H-imidazol-2(3H)-one]	< 0.002
